Measured values as given in ChEMBL document CHEMBL1128068, “Inhibitors of human collagenase: dipeptide mimetics with lactam and azalactam moieties at the position” (Bioorg Med Chem Lett, 1995).

Target: T1, Interstitial collagenase (Homo sapiens, UniProt P03956)
T1 sequence (P03956 whole entry): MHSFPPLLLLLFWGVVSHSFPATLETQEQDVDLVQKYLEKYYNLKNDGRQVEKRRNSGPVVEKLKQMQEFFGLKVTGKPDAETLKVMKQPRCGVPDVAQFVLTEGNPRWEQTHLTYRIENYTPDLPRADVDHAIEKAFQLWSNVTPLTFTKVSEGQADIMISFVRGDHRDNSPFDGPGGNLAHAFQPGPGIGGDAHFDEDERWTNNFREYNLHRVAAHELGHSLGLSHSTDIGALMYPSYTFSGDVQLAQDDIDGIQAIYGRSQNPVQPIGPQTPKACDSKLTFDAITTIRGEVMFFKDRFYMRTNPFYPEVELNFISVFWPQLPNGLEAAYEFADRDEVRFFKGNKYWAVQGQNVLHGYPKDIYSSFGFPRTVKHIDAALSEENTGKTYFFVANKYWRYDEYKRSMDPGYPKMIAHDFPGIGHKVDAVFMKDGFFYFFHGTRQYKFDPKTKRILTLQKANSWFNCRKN
Assay: Inhibition of semi-purified human lung fibroblast collagenase

| SMILES | IC50 |
| --- | --- |
| CC(C)C[C@@H](C(=O)NC1CCCCCCCCCCNC1=O)[C@@H](S)CC(=O)OC(C)C (stereo partly specified) | 0.051 µM |
| CC(C)CC(CC(=O)NO)C(=O)N[C@H]1CCCCNCCCCCNC1=O (stereo in doubt; 17b) | 0.082 µM |
| CC(C)CC(CC(=O)NO)C(=O)N[C@H]1CCCCNCCCCCNC1=O (stereo in doubt; 17a) | 0.012 µM |
| CC[C@H](N[C@@H](CC(C)C)C(=O)NC1CCCCN(C)CCCCCNC1=O)P(=O)(O)O (stereo partly specified) | 0.51 µM |
| CC(C)CC(C(=O)NC1CCCCNCCCCCNC1=O)[C@@H](S)CC(=O)OC(C)C (stereo partly specified) | 0.044 µM |
| CC(C)CC(CC(=O)NO)C(=O)NC1CCCCCCCCCCNC1=O (stereo unspecified) | 0.026 µM |

Other lines, results leading:

| IC50 | SMILES |
| --- | --- |
| 0.46 µM | CC[C@H](N[C@@H](CC(C)C)C(=O)NC1CCCCNCCCCCNC1=O)P(=O)(O)O (stereo partly specified) |
| 0.307 µM | CC[C@H](N[C@@H](CC(C)C)C(=O)NC1CCCCNCCCCCCNC1=O)P(=O)(O)O (stereo partly specified) |
| 2.23 µM | CC[C@H](N[C@@H](CC(C)C)C(=O)NC1CCCCNCCCNC1=O)P(=O)(O)O (stereo partly specified) |
| 0.183 µM | CCC(N[C@@H](CC(C)C)C(=O)NC1CCCCCCCCCCNC1=O)P(=O)(O)O (stereo partly specified) |
| 0.227 µM | CC[C@H](N[C@@H](CC(C)C)C(=O)NC1CCCNCCCCCCNC1=O)P(=O)(O)O (stereo partly specified) |
